The record followed here is US11198673B2, “Therapeutic compounds and compositions” (eXIthera Pharmaceuticals, Inc., priority 2014, dated 2021).

SMILES strings stand for the structures. Structures can show the parent of a compound that is named as a salt. Where only a bound is given, the exact number is not on record here.

T1 sequence (P03951 388-625 limits assumed): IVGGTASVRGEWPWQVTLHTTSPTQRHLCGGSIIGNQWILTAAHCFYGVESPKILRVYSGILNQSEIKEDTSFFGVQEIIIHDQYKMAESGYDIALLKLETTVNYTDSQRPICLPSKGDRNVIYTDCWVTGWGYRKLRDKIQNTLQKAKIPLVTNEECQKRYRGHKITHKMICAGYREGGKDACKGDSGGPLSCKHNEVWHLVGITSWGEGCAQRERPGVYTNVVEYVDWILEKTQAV
T1 sequence (P03951 19-387 partner limits assumed): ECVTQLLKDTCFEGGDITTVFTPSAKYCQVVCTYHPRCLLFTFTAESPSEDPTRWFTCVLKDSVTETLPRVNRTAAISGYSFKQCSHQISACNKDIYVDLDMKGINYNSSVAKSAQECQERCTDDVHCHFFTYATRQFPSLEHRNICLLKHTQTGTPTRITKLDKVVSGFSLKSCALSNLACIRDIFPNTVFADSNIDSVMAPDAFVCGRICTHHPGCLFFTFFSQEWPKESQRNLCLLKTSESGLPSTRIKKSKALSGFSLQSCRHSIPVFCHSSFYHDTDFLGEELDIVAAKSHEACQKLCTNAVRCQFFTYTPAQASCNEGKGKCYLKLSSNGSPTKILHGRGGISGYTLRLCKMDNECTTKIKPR

One data set addresses T1, human Factor XIa (Homo sapiens, UniProt P03951).
T1 construct: Enzyme: Factor XIa; 0.25 μM in 50% glycerol (20 μg/mL)
Kind of data set: Factor XIa enzyme inhibition assay (IC50, purified enzyme). Particulars: purified enzyme 0.25 nM, substrate 50 μM; read-out: Potency hFXIa IC50. The format is biochemical. How it is done: • Assay buffer: 20 mM Hepes, pH 7.4; 150 mM NaCl; 0.02% Tween 20 • Compounds: 10 mM stocks in DMSO • Substrate: 20 mM Glp-Pro-Arg-AMC, 25 mg/2.3 mL H2O (store at +4° C.) [Factor XIa, thrombin, and trypsin] • 20 mM Pro-Phe-Arg-AMC (Bachem I-1295), 25 mg/2.2 mL H2O (store at +4° C.) [Factor Xa] • Enzyme: Factor XIa; 0.25 μM in 50% glycerol (20 μg/mL) • Trypsin; 0.2 μM in 50% glycerol (4.8 μg/mL) • Thrombin; 0.2 μM in 50% glycerol (7.34 μg/mL) • Factor Xa; 0.2 μM in 50% glycerol (9.2 μg/mL) • These stocks are aliquoted ([…]) and stored at −20° C. Methods: • 1. Dilute the substrate to 100 μM in assay buffer (30 μL/6 mL). The enzyme is diluted to 0.5 nM just prior to use (12 μL/6 mL for Factor XIa; 15 μL/6 mL for all of the rest.) • 2. Pipette 50 μL of substrate into each well of the 96 well (12×8) microtiter plate. (Column 1 is used as the 100% activity control and receives no compound, and Column 12 is the blank and receives no enzyme.) Add an additional 46 μL to column 2. • 3. Pipette 4 μL of each compound into the appropriate well in column 2 of the plate (unknowns assayed in triplicate, standard assayed in duplicate). The final compound concentration will be 1/50th of the stock. • 4. Serially two-fold dilute the compound by mixing the sample in column 2, removing 50 μL to the next well (column 3), mix and remove to column 4, etc. until column 11. After mixing column 11, remove 50 μL and discard. • 5. Pipette 50 μL of buffer into column 12. Initiate the reaction by adding 50 μL of enzyme solution to each well of columns 1-11 as rapidly as possible. • 6. Read the plate in a spectrophotometer (SpectraMax) at 30° C., wherein each well is measured every 60 s for 30 min. For Factor Xa assays, each well is measured every 1 min for a total of 60 min. • 7. For Factor XIa assays, the compounds are assayed, in duplicate, at 3 different starting concentrations, 20, 2, and 0.2 μM; 1:10, 1:100, and 1:1000 dil'n of 10 mM stock. All data sets are combined for graphing and data fitting. • 8. Data can be used both for estimation of IC50 and for estimation of Kon.
Potential inhibitors of Factor XIa were evaluated using the following assay.
S-2366, pyroGlu-Pro-Arg-7-methylaminocourin (AMC), available from CPC Scientific, Inc., is based on the substrate pyro-Glu-Pro-Arg-pNA, available from Diapharma Group, Inc. (Columbus, Ohio), where the p-nitroanaline group is replaced with 7-methylaminocoumarin (AMC).
The final concentration of the substrate in the assay was 50 μM, and the final concentration of the enzyme was 0.25 nM. Inhibitors were tested by serial dilution over an appropriate range to yield a dose response curve for determination of the inhibitors' IC50 value. The assay mixture was read every minute for 30 minutes in order to generate progress curves. The plates were read in a Spectramax m5 Multimode Plate Reader (Molecular Devices LLC, Sunnyvale, Calif.). Dose response curves were fit to Equation 1 below in which A is the maximum inhibition, B is the minimum inhibition, C is the IC50, and D is the Hill coefficient. [(A−B)/(1+(X/C)^D)]+B (Equation 1)
In general, IC50 refers to the midpoint of a concentration-inhibition curve. `C[C@@H](NC(=O)N1C(=O)[C@H](Cc2ccnc(N)c2)[C@H]1C(N)=O)c1ccccc1` [Example 13, (2S,3R)-3-[(2-aminopyridin-4-yl)methyl]-4-oxo-N-1-[(1R)-1-phenylethyl]azetidine-1,2-dicarboxamide trifluoroacetate]: the IC50 was above 1000 nM. Take `O=C(O)[C@@H]1[C@@H](Cc2ccnc(Cl)c2)C(=O)N1C(=O)NC(c1ccccc1)c1ccccc1` [Example 51]: the IC50 was above 1000 nM. `CCCCCCOC(=O)Nc1cc(C[C@H]2C(=O)N(C(=O)NC(c3ccccc3)c3ccccc3)[C@@H]2C(=O)O)ccn1` [Example 56]: the IC50 was above 1000 nM. The same measure, in the same setting: for `CCCCCCOC(=O)Nc1cc(C[C@H]2C(=O)N(C(=O)NC(c3ccccc3)c3ccccc3)[C@@H]2C(=O)OCC)ccn1` [Example 57] the value was above 1000 nM; for `CCOC(=O)[C@@H]1[C@@H](Cc2cccnc2)C(=O)N1C(=O)N[C@H](C)c1ccc2c(c1)OC(F)(F)O2` [Example 95], above 1000 nM; for `C[C@@H](NC(=O)N1C(=O)[C@H](Cc2ccc(Cl)nc2)[C@H]1C(=O)O)c1ccc2c(c1)OC(F)(F)O2` [Example 96], above 1000 nM. Turning to `CCOC(=O)[C@@H]1[C@@H](Cc2ccc(Cl)nc2)C(=O)N1C(=O)N[C@H](C)c1ccc2c(c1)OC(F)(F)O2` [Example 97], the half-inhibitory concentration (IC50) was above 1000 nM.

As for `C[C@@H](NC(=O)N1C(=O)[C@H](Cc2cncs2)[C@H]1C(=O)O)c1ccc2c(c1)OC(F)(F)O2` [Example 102], the half-maximal inhibitory concentration (IC50) was above 1000 nM. Consider `C[C@@H](NC(=O)N1C(=O)[C@H](Cc2cc(Cl)ccn2)[C@H]1C(=O)O)c1ccc2c(c1)OC(F)(F)O2` [Example 107], for which the IC50 is above 1000 nM. With `C[C@@H](NC(=O)N1C(=O)[C@H](Cc2cncc(Cl)c2)[C@H]1C(=O)O)c1ccc2c(c1)OC(F)(F)O2` [Example 108], the IC50 was above 1000 nM. For the compound `C[C@@H](NC(=O)N1C(=O)[C@H](Cc2ccccn2)[C@H]1C(=O)O)c1ccc2c(c1)OC(F)(F)O2` [Example 114], the IC50 is above 1000 nM. For the compound `O=C(O)[C@@H]1[C@@H](Cc2cccc(Br)c2)C(=O)N1C(=O)N[C@@H](C1CCCCC1)C(F)(F)F` [Example 131], the concentration for half-maximal inhibition (IC50) is above 1000 nM.

Regarding `O=C(O)[C@@H]1[C@@H](Cc2cncc(Cl)c2)C(=O)N1C(=O)N[C@@H](C1CCCCC1)C(F)(F)F` [Example 133], the IC50 was above 1000 nM. In the case of `O=C(O)[C@@H]1[C@@H](Cc2cccc3c2OCO3)C(=O)N1C(=O)N[C@@H](C1CCCCC1)C(F)(F)F` [Example 136], the IC50 was in the range of 100 to 1000 nM.

In the case of `O=C(O)[C@@H]1[C@@H](Cc2cccc3[nH]ncc23)C(=O)N1C(=O)N[C@@H](C1CCCCC1)C(F)(F)F` [Example 138], the IC50 is above 1000 nM. Regarding `O=C(O)[C@@H]1[C@@H](Cc2ccccc2)C(=O)N1C(=O)N[C@@H](C1CCCCC1)C(F)(F)F` [Example 139], the concentration for half-maximal inhibition (IC50) was above 1000 nM.

As to `C[C@H](c1ccccc1)N(C)C(=O)N1C(=O)[C@H](CCc2cccc(Cl)c2)[C@H]1C(=O)O` [Example 144], the half-inhibitory concentration (IC50) is above 1000 nM. Same read-out and setting: for `O=C(O)[C@@H]1[C@@H](CCc2ccccc2)C(=O)N1C(=O)N[C@@H](C1CCCCC1)C(F)(F)F` [Example 145] the value was above 1000 nM; for `O=C(O)[C@@H]1[C@@H](Cc2ccnc(O)c2)C(=O)N1C(=O)N[C@@H](C1CCCCC1)C(F)(F)F` [Example 147], above 1000 nM. `C[C@H](C1CCCCC1)N(C)C(=O)N1C(=O)[C@H](Cc2ccnc(N)c2)[C@H]1C(=O)O` [Example 149]: the IC50 was 10 to 100 nM. As to `CCOC(=O)[C@@H]1[C@@H](Cc2ccnc(NC(=O)OC(C)OC(=O)C(C)C)c2)C(=O)N1C(=O)N[C@H](C)C1CCCCC1` (stereo partly drawn) [Example 150], the IC50 is 10 to 100 nM.

As for `CCOC(=O)[C@@H]1[C@@H](Cc2ccnc(N)c2)C(=O)N1C(=O)N(C)[C@H](C)C1CCCCC1` [Example 151], the 50% inhibitory concentration (IC50) was 10 to 100 nM. The same measure, in the same setting: under `O=C(O)[C@@H]1[C@@H](CCCc2ccccc2)C(=O)N1C(=O)N[C@@H](C1CCCCC1)C(F)(F)F` [Example 152] stands above 1000 nM; under `O=C(O)[C@@H]1[C@@H](CCc2ccc(Cl)cc2)C(=O)N1C(=O)N[C@@H](C1CCCCC1)C(F)(F)F` [Example 153], above 1000 nM.

`COc1cccc(CC[C@H]2C(=O)N(C(=O)N[C@@H](C3CCCCC3)C(F)(F)F)[C@@H]2C(=O)O)c1` [Example 154]: the IC50 is above 1000 nM. With `Cc1cccc(CC[C@H]2C(=O)N(C(=O)N[C@@H](C3CCCCC3)C(F)(F)F)[C@@H]2C(=O)O)c1` [Example 155], the concentration for half-maximal inhibition (IC50) was 100 to 1000 nM.

With `O=C(O)[C@@H]1[C@@H](CCc2cccc(Cl)c2)C(=O)N1C(=O)NC(c1ccccc1)c1ccccc1` [Example 157], the IC50 is above 1000 nM. Regarding `C[C@@H](NC(=O)N1C(=O)[C@H](CCc2cccc(Cl)c2)[C@H]1C(=O)O)c1ccc2c(c1)OC(F)(F)O2` [Example 159], the IC50 is 100 to 1000 nM. With `C[C@@H](NC(=O)N1C(=O)[C@H](Cc2ccnc(Cl)c2)[C@H]1C(=O)O)c1ccccc1` [Example 190], the half-inhibitory concentration (IC50) was above 1000 nM.

In the case of `C[C@@H](NC(=O)N1C(=O)[C@H](Cc2cccnc2)[C@H]1C(=O)O)c1ccc2c(c1)OC(F)(F)O2` [Example 191], the IC50 was above 1000 nM.

Turning to `CCCC(CCC)NC(=O)N1C(=O)[C@H](CCc2cccc(Cl)c2)[C@H]1C(=O)O` [Example 192], the IC50 was above 1000 nM. `O=C(O)[C@@H]1[C@@H](Cc2cccc(Cl)c2)C(=O)N1C(=O)N[C@@H](C1CCCCC1)C(F)(F)F` [Example 193]: the IC50 is above 1000 nM. The same measure, in the same setting: for `O=C(O)[C@@H]1[C@@H](CCc2ccccc2Cl)C(=O)N1C(=O)N[C@@H](C1CCCCC1)C(F)(F)F` [Example 194] the value was above 1000 nM. With `O=C(O)[C@@H]1[C@@H](Cc2ccc(Cl)cc2)C(=O)N1C(=O)N[C@@H](C1CCCCC1)C(F)(F)F` [Example 195], the IC50 was above 1000 nM. For the compound `O=C(O)[C@@H]1[C@@H](Cc2ccccc2Cl)C(=O)N1C(=O)N[C@@H](C1CCCCC1)C(F)(F)F` [Example 196], the IC50 was above 1000 nM. Consider `O=C(O)[C@@H]1[C@@H](CCc2cc(Cl)ccc2F)C(=O)N1C(=O)N[C@@H](C1CCCCC1)C(F)(F)F` [Example 197], for which the IC50 was in the range of 100 to 1000 nM. For `O=C(O)[C@@H]1[C@@H](CCc2cc(Cl)ccc2Cl)C(=O)N1C(=O)N[C@@H](C1CCCCC1)C(F)(F)F` [Example 198], the half-inhibitory concentration (IC50) was in the range of 100 to 1000 nM. For the compound `O=C(O)[C@@H]1[C@@H](CCc2cccc(Cl)c2)C(=O)N1C(=O)N[C@@H](C1CCCCCCC1)C(F)(F)F` [Example 199], the IC50 was in the range of 100 to 1000 nM.

In the case of `O=C(O)[C@@H]1[C@@H](CCc2ccc(Br)s2)C(=O)N1C(=O)N[C@@H](C1CCCCC1)C(F)(F)F` [Example 200], the half-maximal inhibitory concentration (IC50) is above 1000 nM.

Tested on in the next data set: not listed separately
Kind of data set: β-Lactam stability in rat plasma. The format is in vitro ADME. The settings on record: normal rat plasma, room temperature; read-out: Rat Plasma Stability (T1/2; min). How it is done:
Normal rat plasma, stored at −80° C.
• 1. Place 6 μL of each compound into 0.5 mL microcentrifuge tubes or 96-well U-bottom, polypropylene microtiter plate • 2. Place 40 μL of acetonitrile (AcN) into 0.5 mL microcentrifuge tubes labeled 1-9 • 3. Add 114 μL of plasma to each compound • 4. Sample 10 μL of compound/plasma into AcN at 2, 10, 20, 30, 60, 90, 120, 240, and 480 min of incubation at room temperature • 5. Mix each time point after adding sample and place on ice. • 6. Centrifuge time points (12,000 rpm, 3 min), remove 15 μL of the supernatant and mix with 15 μL 0.1% TFA in a V-bottom microtiter plate. • 7. Place microtiter plate in autosampler of HPLC and analyze on Restek Pinnacle C18 column (2.1×100 mm). • 8. Generate extracted ion chromatogram for parent compound and parent compound+18 (H2O). Integrate extracted ion chromatograms (EIC) and plot % total peak area for parent and adduct versus time. Fit to a model of single phase exponential decay [Y=A0*exp(−k*x)+C]. T½ is equal to ln(2)/k.
Turning to `CCCCCCOC(=O)Nc1cc(C[C@H]2C(=O)N(C(=O)NC(c3ccccc3)c3ccccc3)[C@@H]2C(=O)O)ccn1` [Example 56], the half-life was above 1.67 h. On the same count and under the same terms, under `CCCCCCOC(=O)Nc1cc(C[C@H]2C(=O)N(C(=O)NC(c3ccccc3)c3ccccc3)[C@@H]2C(=O)OCC)ccn1` [Example 57] stands below 1.67 h. Same read-out and setting: for `CCOC(=O)[C@@H]1[C@@H](Cc2ccc(Cl)nc2)C(=O)N1C(=O)N[C@H](C)c1ccc2c(c1)OC(F)(F)O2` [Example 97] the value was below 1.67 h. As for `C[C@@H](NC(=O)N1C(=O)[C@H](Cc2cncs2)[C@H]1C(=O)O)c1ccc2c(c1)OC(F)(F)O2` [Example 102], the half-life was above 1.67 h. Regarding `CCOC(=O)[C@@H]1[C@@H](Cc2ccnc(NC(=O)OC(C)OC(=O)C(C)C)c2)C(=O)N1C(=O)N[C@H](C)C1CCCCC1` (stereo partly drawn) [Example 150], the half-life is below 1.67 h. On to `CCOC(=O)[C@@H]1[C@@H](Cc2ccnc(N)c2)C(=O)N1C(=O)N(C)[C@H](C)C1CCCCC1` [Example 151], for which the half-life was below 1.67 h.
